Assay results published in patent publication EP1044015B1, “FORMULATIONS FOR AMYLIN AGONIST PEPTIDES WITH INSULIN” (AMYLIN PHARMACEUTICALS, INC., priority 1998, dated 2008).

Assay: Adsorption onto glass container
Assay type: physicochemical
Conditions: liquid form
Excerpt: However, with regard to amylin agonists or amylins which do have such a tendency, a surfactant should be used in their formulation which formulations should then be lyophilized. Surfactants frequently cause denaturation of protein, both of hydrophobic disruption and by salt bridge separation. Relatively low concentrations of surfactant exert a potent denaturing activity, because of the strong interactions between surfactant moieties and the reactive sites on proteins. However, judicious use of this interaction can stabilize proteins against interfacial or surface denaturation. Surfactants which could further stabilize the peptide may optionally be present in the range of about 0.001 to 0.3% (w/v) of the total formulation and include polysorbate 80 (i.e., polyoxyethylene(20) sorbitan monooleate), CHAPS° (i.e., 3-[(3-cholamidopropyl) dimethylammonio] 1-propanesulfonate), Brij° (e.g., Brij 35, which is (polyoxyethylene (23) lauryl ether), poloxamer, or another non-ionic surfactant.

Substance: ^25,28,29Pro-h- amylin [Pramlintide]
- tendency to adsorb onto the glass: does not have a tendency to adsorb onto the glass
